# Patent US20020061888A1, “Combination therapy for the prophylaxis and treatment of hyperlipidemic conditions and disorders” (priority 2000, published 2002)
# Assays:
# Type in all cases: in vivo
# [1] = tested on: Male beagle dogs; experiment: Fecal bile acid concentration in beagle dogs (enzymatic 3α-hydroxysteroid dehydrogenase assay of fecal extracts); details: for FECAL BILE ACID CONCENTRATION: n = 6; for % change in fecal bile acid: Week 2, footnote: vs pretreatment, text b128: vs vehicle
# Experimental: Male beagle dogs (9-10 kg) obtained from Marshall farms were fed a normal chow diet once a day for a two hour interval and given water ad libitum. Prior to initiating treatment, the dogs were weighed and blood samples were drawn from the cephalic vein of each dog following an overnight fast to evaluate pretreatment serum total cholesterol levels at the start of the study. […] All doses were administered in gelatin capsules per os to each dog between 9:00-9:30 a.m. prior to feeding. All animals were fed between 9:30-10:00 a.m. and were allowed two hours to eat, at which time any remaining food was removed. […] Three consecutive 24 hour fecal samples were collected for each group during the last 72 hours of each week and used to measure the concentration of fecal biles acids excreted during that time period.
# Fecal samples were collected to determine the fecal bile acid (“FBA”) concentration for each animal. Three consecutive 24 hour fecal samples were collected between 8:00 a.m. and 9:00 a.m. each day, prior to dosing and feeding, during the last 72 hour period of each week. The separate daily collections from each dog were weighed, combined and homogenized with distilled water in a food processor to generate a homogeneous slurry. A 1.4 g sample of fecal homogenate was extracted with 2.6 mL of a solution containing tertiary butanol:distilled water in the ratio of 2:0.6 (final concentration of 50% tertiary butanol v/v distilled water) for 45 minutes in a 37° C. water bath and centrifuged for 13 minutes at 2000 x g. The concentration of bile acids (μmoles/gram homogenate) was determined using a 96-well enzymatic assay system described in van der Meer et al., “t-Butanol Extraction of Feces: A Rapid Procedure For Enzymic Determination Of Fecal Bile Acids”, Cholesterol, Metabolism in Health and Disease: Studies in the Netherlands, edited by Beynen, et al., Ponsen and Looyen, Wageningen, 1985; and Turley et al., “Re-evaluation of the 3 Alpha-Hydroxysteroid Dehydrogenase Assay For Total Bile Acids In Bile”, J. Lipid Research, 19:924-928, 1978.
# A 20 μL aliquot of each fecal extract was added to each of two sets of triplicate wells in a 96-well assay plate. A standardized sodium taurocholate solution and a standardized fecal extract solution (previously made from pooled samples and characterized for its bile acid concentration) were also analyzed for assay quality control. A standard curve of five points containing 30-540 nmoles/well was generated by serial dilutions of an initial 20 μL aliquot of 90 mM sodium taurocholate. A 230 μL aliquot of a reaction mixture containing 1M hydrazine hydrate, 0.1 M pyrophosphate and 0.46 mg/ml NAD was added to each well. Subsequently, a 50 μL aliquot of either 3α-hydroxysteroid dehydrogenase (“HSD”) enzyme (0.8 units/mL) or assay buffer (0.1 M sodium pyrophosphate) was then added to one each of the two sets of triplicates. Following 60 minutes of incubation at room temperature, the optical density at 340 nm was measured and the mean of each set of triplicate samples was calculated. The difference in optical density with and without HSD enzyme was used to determine the bile acid concentration (mM) of each sample based on the sodium taurocholate standard curve. The bile acid concentration of the extract (μmoles/gram homogenate), the total weight of the fecal homogenate (grams) and the body weight of the dogs (kg) were used to calculate the corresponding fecal bile acid concentration in μtmoles/kg/day for each animal.
# All reagents used for the assay were obtained from Sigma Chemical Co., St. Louis, Mo. (HSD enzyme—catalog # H-1506; NAD—catalog # N1636; sodium taurocholate—catalog # T-4009).
# [2] = tested on: Male beagle dogs; experiment: Serum triglyceride in beagle dogs; details: n = 6
# Experimental: Following this initial four week dose-ranging study, dogs from the two groups receiving 10 mg/kg/day pravastatin (a.m. and p.m. dosing groups) were randomized into two new treatment groups based on serum total cholesterol levels to initiate the combination treatment study. […] Dosing continued in this manner for an additional four weeks (Weeks 5-8) with blood and 48-hour fecal samples collected at the end of each week for serum lipid measurements and fecal bile acid determinations, respectively. […] At the end of this three-week period, pravastatin dosing and all empty capsule dosing were discontinued and blood samples were collected weekly for a final three weeks (weeks 12-14) to monitor the return of serum total cholesterol levels back to baseline.
# Blood was collected from the cephalic vein of each dog into serum separator tubes. The blood was centrifuged at 900×g for 20 minutes at room temperature and the serum decanted. All analyses were performed on a Cobas Mira Clinical Analyzer System (Roche Diagnostic Systems, Branchburg, N.J.) using Roche Diagnostic reagents for enzymatic determinations of serum cholesterol and triglycerides. Commercial calibrator and quality control materials were analyzed with each run to verify assay accuracy and precision. A two-tailed, paired Students t-test was used to determine the statistical significance of changes in total serum cholesterol in treated animals compared to their pretreatment values. A two-sample, two-tailed unequal variance Students t-test was used to determine serum total cholesterol and triglyceride changes in the combination therapy group compared to the monotherapy groups. […]
# [3] = tested on: Male beagle dogs; experiment: Serum total cholesterol in beagle dogs (serum lipid measurements); details: pravastatin 16.0 mg/kg/day, Week 3, mean ± SEM, n = 6
# [4] = compound A-5 monotherapy 4.0 mg/kg/day, dosed Weeks 5-8, Week 5, mean ± SEM
# [5] = compound A-5 monotherapy 4.0 mg/kg/day, dosed Weeks 5-8, Week 6, mean ± SEM
# [6] = compound A-5 monotherapy 4.0 mg/kg/day, dosed Weeks 5-8, Week 7, mean ± SEM
# [7] = compound A-5 monotherapy 4.0 mg/kg/day, dosed Weeks 5-8, Week 8, mean ± SEM
# [8] = compound A-5 monotherapy group, dosing terminated after Week 8, Week 9, mean ± SEM
# [9] = compound A-5 monotherapy group, dosing terminated after Week 8, Week 10, mean ± SEM
compound,measurement,setting,value
CCCCC1(CC)CS(=O)(=O)c2ccc(N(C)C)cc2[C@@H](c2cccc(OCc3ccc(C[N+]45CCN(CC4)CC5)cc3)c2)[C@H]1O.[Cl-] (stereo partly drawn) [Compound A-5],return of fecal bile acid levels to their pretreatment levels after the last day of compound A-5 dosing,"[1]; Example 3, 4.0 mg/kg/day compound A-5 for four weeks, alone or with 10 mg/kg/day pravastatin",within one week
same,FECAL BILE ACID CONCENTRATION,"[1]; compound A-5 0.22 mg/kg/day per os, Week 1, mean ± SEM",89 ± 9^3 μmol/day/kg
same,% change in fecal bile acid,[1]; compound A-5 0.22 mg/kg/day per os,(270) %
same,FECAL BILE ACID CONCENTRATION,"[1]; compound A-5 0.22 mg/kg/day per os, Week 2, mean ± SEM",100 ± 11^3 μmol/day/kg
same,FECAL BILE ACID CONCENTRATION,"[1]; compound A-5 0.22 mg/kg/day per os, Week 3, mean ± SEM",81 ± 7^3 μmol/day/kg
same,FECAL BILE ACID CONCENTRATION,"[1]; compound A-5 0.66 mg/kg/day per os, Week 1, mean ± SEM",134 ± 19^3 μmol/day/kg
same,% change in fecal bile acid,[1]; compound A-5 0.66 mg/kg/day per os,(396) %
same,FECAL BILE ACID CONCENTRATION,"[1]; compound A-5 0.66 mg/kg/day per os, Week 2, mean ± SEM",134 ± 16^3 μmol/day/kg
same,FECAL BILE ACID CONCENTRATION,"[1]; compound A-5 0.66 mg/kg/day per os, Week 3, mean ± SEM",126 ± 12^3 μmol/day/kg
same,FECAL BILE ACID CONCENTRATION,"[1]; compound A-5 2.0 mg/kg/day per os, Week 1, mean ± SEM",168 ± 13^3 μmol/day/kg
same,% change in fecal bile acid,[1]; compound A-5 2.0 mg/kg/day per os,(411) %
same,FECAL BILE ACID CONCENTRATION,"[1]; compound A-5 2.0 mg/kg/day per os, Week 2, mean ± SEM",138 ± 12^3 μmol/day/kg
same,FECAL BILE ACID CONCENTRATION,"[1]; compound A-5 2.0 mg/kg/day per os, Week 3, mean ± SEM",164 ± 11^3 μmol/day/kg
same,FECAL BILE ACID CONCENTRATION,"[1]; compound A-5 6.0 mg/kg/day per os, Week 1, mean ± SEM",190 ± 18^3 μmol/day/kg
same,% change in fecal bile acid,[1]; compound A-5 6.0 mg/kg/day per os,(674) %
same,FECAL BILE ACID CONCENTRATION,"[1]; compound A-5 6.0 mg/kg/day per os, Week 2, mean ± SEM",209 ± 27^3 μmol/day/kg
same,FECAL BILE ACID CONCENTRATION,"[1]; compound A-5 6.0 mg/kg/day per os, Week 3, mean ± SEM",179 ± 16^3 μmol/day/kg
same,% change in fecal bile acid concentration from Week 0,"[1]; compound A-5 monotherapy 4.0 mg/kg/day, dosed Weeks 5-8, Week 5",(+293)^4%
same,FECAL BILE ACID CONCENTRATION,[1]; [4],106 ± 13^3 μmol/kg/day
same,% change in fecal bile acid concentration from Week 0,"[1]; compound A-5 monotherapy 4.0 mg/kg/day, dosed Weeks 5-8, Week 6",(+374) %
same,FECAL BILE ACID CONCENTRATION,[1]; [5],128 ± 17^3 μmol/kg/day
same,% change in fecal bile acid concentration from Week 0,"[1]; compound A-5 monotherapy 4.0 mg/kg/day, dosed Weeks 5-8, Week 7",(+578) %
same,FECAL BILE ACID CONCENTRATION,[1]; [6],183 ± 39^3 μmol/kg/day
same,FECAL BILE ACID CONCENTRATION,[1]; [7],109 ± 23^3 μmol/kg/day
same,% change in fecal bile acid concentration from Week 0,"[1]; compound A-5 monotherapy group, dosing terminated after Week 8, Week 9",(+48) %
same,FECAL BILE ACID CONCENTRATION,[1]; [8],40 ± 6 µmol/kg/day
same,% change in fecal bile acid concentration from Week 0,"[1]; compound A-5 monotherapy group, dosing terminated after Week 8, Week 10",(+59) %
same,FECAL BILE ACID CONCENTRATION,[1]; [9],43 ± 4 µmol/kg/day
same,TOTAL SERUM TRIGLYCERIDE,[2]; [4],37 ± 3 mg/dL
same,TOTAL SERUM TRIGLYCERIDE,[2]; [5],32 ± 3 mg/dL
same,TOTAL SERUM TRIGLYCERIDE,[2]; [6],36 ± 3 mg/dL
same,TOTAL SERUM TRIGLYCERIDE,[2]; [7],34 ± 3 mg/dL
same,TOTAL SERUM TRIGLYCERIDE,[2]; [8],39 ± 3 mg/dL
same,TOTAL SERUM TRIGLYCERIDE,[2]; [9],42 ± 4 mg/dL
same,TOTAL SERUM TRIGLYCERIDE,"[2]; compound A-5 monotherapy group, dosing terminated after Week 8, Week 11, mean ± SEM",34 ± 3 mg/dL
same,TOTAL SERUM TRIGLYCERIDE,"[2]; compound A-5 monotherapy group, dosing terminated after Week 8, Week 12, mean ± SEM",51 ± 5 mg/dL
same,TOTAL SERUM TRIGLYCERIDE,"[2]; compound A-5 monotherapy group, dosing terminated after Week 8, Week 13, mean ± SEM",46 ± 3 mg/dL
"CC[C@H](C)C(=O)O[C@H]1C[C@H](O)C=C2C=C[C@H](C)[C@H](CC[C@@H](O)C[C@@H](O)CC(=O)O)[C@H]21 [pravastatin, Pravastatin]",% change in fecal bile acid concentration from Week 0,"[1]; pravastatin monotherapy 10 mg/kg/day, Week 5",(−54) %
same,FECAL BILE ACID CONCENTRATION,"[1]; pravastatin monotherapy 10 mg/kg/day, Week 5, mean ± SEM",17 ± 5 µmol/kg/day
same,% change in fecal bile acid concentration from Week 0,"[1]; pravastatin monotherapy 10 mg/kg/day, Week 6",(−38) %
same,FECAL BILE ACID CONCENTRATION,"[1]; pravastatin monotherapy 10 mg/kg/day, Week 6, mean ± SEM",23 ± 7 µmol/kg/day
same,% change in fecal bile acid concentration from Week 0,"[1]; pravastatin monotherapy 10 mg/kg/day, Week 7",(−19) %
same,FECAL BILE ACID CONCENTRATION,"[1]; pravastatin monotherapy 10 mg/kg/day, Week 7, mean ± SEM",30 ± 6 µmol/kg/day
same,% change in fecal bile acid concentration from Week 0,"[1]; pravastatin monotherapy 10 mg/kg/day, Week 8",(−30) %
same,FECAL BILE ACID CONCENTRATION,"[1]; pravastatin monotherapy 10 mg/kg/day, Week 8, mean ± SEM",26 ± 9 µmol/kg/day
same,% change in fecal bile acid concentration from Week 0,"[1]; pravastatin monotherapy 10 mg/kg/day, Week 9",(−24) %
same,FECAL BILE ACID CONCENTRATION,"[1]; pravastatin monotherapy 10 mg/kg/day, Week 9, mean ± SEM",28 ± 5 µmol/kg/day
same,% change in fecal bile acid concentration from Week 0,"[1]; pravastatin monotherapy 10 mg/kg/day, Week 10",(−24) %
same,FECAL BILE ACID CONCENTRATION,"[1]; pravastatin monotherapy 10 mg/kg/day, Week 10, mean ± SEM",28 ± 6 µmol/kg/day
same,TOTAL SERUM TRIGLYCERIDE,"[2]; pravastatin monotherapy 10 mg/kg/day, dosed Weeks 1-11, Week 4, mean ± SEM",30 ± 4 mg/dL
same,TOTAL SERUM TRIGLYCERIDE,"[2]; pravastatin monotherapy 10 mg/kg/day, dosed Weeks 1-11, Week 5, mean ± SEM",34 ± 3 mg/dL
same,TOTAL SERUM TRIGLYCERIDE,"[2]; pravastatin monotherapy 10 mg/kg/day, dosed Weeks 1-11, Week 6, mean ± SEM",35 ± 4 mg/dL
same,TOTAL SERUM TRIGLYCERIDE,"[2]; pravastatin monotherapy 10 mg/kg/day, dosed Weeks 1-11, Week 7, mean ± SEM",37 ± 3 mg/dL
same,TOTAL SERUM TRIGLYCERIDE,"[2]; pravastatin monotherapy 10 mg/kg/day, dosed Weeks 1-11, Week 8, mean ± SEM",38 ± 5 mg/dL
same,TOTAL SERUM TRIGLYCERIDE,"[2]; pravastatin monotherapy 10 mg/kg/day, dosed Weeks 1-11, Week 9, mean ± SEM",34 ± 2 mg/dL
same,TOTAL SERUM TRIGLYCERIDE,"[2]; pravastatin monotherapy 10 mg/kg/day, dosed Weeks 1-11, Week 11, mean ± SEM",33 ± 3 mg/dL
same,TOTAL SERUM TRIGLYCERIDE,"[2]; pravastatin monotherapy group, dosing terminated after Week 11, Week 12, mean ± SEM",46 ± 4 mg/dL
same,TOTAL SERUM TRIGLYCERIDE,"[2]; pravastatin monotherapy group, dosing terminated after Week 11, Week 13, mean ± SEM",44 ± 3 mg/dL
same,TOTAL SERUM TRIGLYCERIDE,"[2]; pravastatin monotherapy group, dosing terminated after Week 11, Week 14, mean ± SEM",40 ± 4 mg/dL
same,SERUM TOTAL CHOLESTEROL,[3],134 ± 13^2 mg/dL
